The source of these data is US7981922B2, “Angiotensin I-converting enzyme (ACE) inhibitors” (University of Cape Town, priority 2005, dated 2011).

Test [1] deals with N-domain of ACE (Homo sapiens, UniProt P12821). In words: ACE inhibitory activity, fluorometric determination of His-Leu, N-domain. The test is classed as biochemical. The settings on record: substrate Z-Phe-His-Leu; no inhibition up to 500 μM; read-out: Ki (N-dom) ZPHL. How it is done:
(§1) The ACE inhibitory activity (as tabulated in Table 1) was measured by the fluorometric determination of pthaldialdehyde-derivatised histidylleucine, a product of the enzyme reaction according to the method of Almquist et al.,^12 with some modifications. For tACEdelta36NJ and N-domain inhibition using Z-Phe-His-Leu as substrate: —10 μL of 0.05 mg/mL enzyme+120 μL inhibitor at ambient temperature for 3 hours. Inhibitor concentrations ranged from 2.0 μM to 500 μM. A 3.0 μL aliquot of this was assayed for enzyme activity using 30 μL of 1.0 mM […]. This was incubated (in triplicate) for 30 mins at 37° C. and stopped with 180 μL solution of 0.28N NaOH. To this alkalized mixture 12 μL of o-pthaldialdehyde (150 mM) was added and the mixture incubated for another 10 mins at room temperature. Reactions were stopped by adding 26 μL solution of 3N HCl. Fluorescence was measured at Ex=360 nm; Em=486 nm, 5×5 slit width along with a His-Leu standard calibration curve fluorometer: Varian Cary Eclipse plate reader.
(§2) All assays included enzyme incubated with buffer in the absence of inhibitor (i.e. 0 μM inhibitor concentration).

Test [2] deals with tACEdelta36NJ (Homo sapiens, UniProt P12821). In words: ACE inhibitory activity, fluorometric determination of His-Leu, tACE. The test is classed as biochemical. The settings on record: for C domain-selectivity: C domain (tACE) versus N domain; for Ki: substrate Z-Phe-His-Leu, enzyme + inhibitor 3 hours at ambient temperature, read-out: Ki (tACE) ZPHL. On the procedure:
as §1, §2

The subject of test [3] is ACE C-domain. The following applies: C-domain versus N-domain of ACE; cited from earlier work.

Chain of tACEdelta36NJ (P12821 642-1230 limits assumed): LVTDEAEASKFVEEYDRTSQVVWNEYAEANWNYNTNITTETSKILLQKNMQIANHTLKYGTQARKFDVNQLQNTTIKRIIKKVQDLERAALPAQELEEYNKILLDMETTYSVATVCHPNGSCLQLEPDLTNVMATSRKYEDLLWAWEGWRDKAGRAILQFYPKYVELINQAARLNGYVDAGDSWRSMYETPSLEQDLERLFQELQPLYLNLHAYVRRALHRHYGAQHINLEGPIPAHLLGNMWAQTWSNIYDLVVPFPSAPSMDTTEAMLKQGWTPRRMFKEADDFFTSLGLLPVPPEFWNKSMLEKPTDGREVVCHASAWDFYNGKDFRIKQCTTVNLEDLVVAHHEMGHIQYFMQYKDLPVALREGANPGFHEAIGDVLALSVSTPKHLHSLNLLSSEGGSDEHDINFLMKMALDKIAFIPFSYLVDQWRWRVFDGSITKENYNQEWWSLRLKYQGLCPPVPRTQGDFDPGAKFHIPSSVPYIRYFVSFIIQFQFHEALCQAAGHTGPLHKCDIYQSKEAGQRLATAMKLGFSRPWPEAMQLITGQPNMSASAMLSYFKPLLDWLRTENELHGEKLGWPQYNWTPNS
Chain of N-domain of ACE (P12821 40-624 limits assumed): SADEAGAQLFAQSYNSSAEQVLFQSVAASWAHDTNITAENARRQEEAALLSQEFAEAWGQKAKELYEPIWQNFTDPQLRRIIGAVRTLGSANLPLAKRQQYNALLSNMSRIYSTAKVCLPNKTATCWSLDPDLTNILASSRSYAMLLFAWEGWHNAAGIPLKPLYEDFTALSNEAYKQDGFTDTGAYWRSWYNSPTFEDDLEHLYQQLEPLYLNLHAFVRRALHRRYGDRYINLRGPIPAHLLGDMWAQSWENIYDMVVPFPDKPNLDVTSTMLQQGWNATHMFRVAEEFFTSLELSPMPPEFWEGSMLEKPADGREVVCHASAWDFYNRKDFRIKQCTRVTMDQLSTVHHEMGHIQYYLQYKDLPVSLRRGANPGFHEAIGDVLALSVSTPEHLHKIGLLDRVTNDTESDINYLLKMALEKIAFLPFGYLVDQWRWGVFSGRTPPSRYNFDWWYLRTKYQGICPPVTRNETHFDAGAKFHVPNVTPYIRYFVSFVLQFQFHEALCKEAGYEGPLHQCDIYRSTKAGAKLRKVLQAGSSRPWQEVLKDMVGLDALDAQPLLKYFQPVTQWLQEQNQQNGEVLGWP

Take `NCCCC[C@H](N[C@@H](CCc1ccccc1)C(=O)O)C(=O)N[C@@H](Cc1c[nH]c2ccccc12)C(=O)O` [Compound 6]: the inhibitory constant (Ki) (commonly a dissociation constant, usually derived from enzyme kinetics or from competition with a known ligand) in test [1] is > 500 µM; in test [2], 26.3 µM. In test [2], the C domain-selectivity was > 19 fold.

Turning to `NCCCC[C@H](N[C@H](CCc1ccccc1)C(=O)O)C(=O)N[C@@H](Cc1c[nH]c2ccccc12)C(=O)O` [Compound 6a], the Ki in test [1] was > 500 µM. In test [2], the C domain-selectivity is recorded as > 72 fold and the Ki worked out at 7 µM.

For the molecule `O=C(N[C@@H](Cc1ccccc1)P(=O)(O)C1CCCC1C(=O)N[C@@H](Cc1c[nH]c2ccccc12)C(=O)O)OCc1ccccc1` (stereo partly shown) [RXP A380], the C-domain selective in test [3] is recorded as ~3000 fold.
